A short description of this data set: oral administration: blood concentration of the citrate salt vs free base Compound 1. Type of data set: in vivo. Conditions: administered orally.

For the compound `Cc1cccc(C)c1CNc1cc(C(=O)N2CCC2)cn2c(C)c(C)nc12.O=C(O)CC(O)(CC(=O)O)C(=O)O` [citrate salt of Compound 1, azetidin-1-yl{8-[(2,6-dimethylbenzyl)amino]-2,3-dimethylimidazo[1,2-a]pyridin-6-yl}methanone citrate salt], the “AUC compared to the free base Compound 1” value is reported as “at least 5 fold”, the “Cmax compared to the free base Compound 1” value is recorded as “at least 11 fold” and the “time to reach peak blood concentrations compared to the free base Compound 1” value is recorded as “faster”.
